{
  "source": "patent US5079228A",
  "about": "“Peptide inhibitors of neutrophil activating factor induced chemotaxis” (Board of Regents, The University of Texas System, priority 1990, dated 1992)",
  "key": {"[1]": {"tested_on": "cytochalasin B primed neutrophils", "test": "Enzyme release from neutrophils (β-D-glucuronidase, microtiter plate)", "format": "cell-based, human", "conditions": "37° C., 30 min, FIG. 3", "procedure": "Neutrophil enzyme release was measured by a modification of the method of Goldstein and colleagues.^23 Cytochalasin B (Sigma Chemical Co., St. Louis, Mo.) was stored in dimethylsulphoxide at a concentration of 5 mg/ml and diluted to a concentration of 100 μg/ml in Hanks' balanced salt solution (HBSS) immediately before use. Neutrophils were prepared as described and incubated at a cell density of 5×10^6 cells/ml for ten minutes at room temperature in the presence of Cytochalasin B (10 μg/ml). Aliquots of 100 μl of the primed cell suspension were then distributed into the wells of a 96-well microtiter plate and 100 μl of stimulant was added. The cells were then incubated at 37° C. for 30 min. The plates were centrifuged at 850 rpm for 5 min, and 100 μl of supernatant was removed. The supernatants were assayed for β-D-glucuronidase activity.\nThe ability of native NAF and the synthetic peptides to induce the release of β-D-glucuronidase from cytochalasin B primed neutrophils was examined using a microtiter plate technique. […]\nβ-D-glucuronidase was measured by determining the change in absorbance of phenolphthalein β-D-glucuronide (Sigma Chemical Co.) at 540 nm by the method of Gianetto and DeDuve.^24 The results were expressed as picomoles of substrate hydrolysed per hour."}, "human neutrophils": {"tested_on": "human neutrophils", "test": "Neutrophil chemotaxis, leading front method in blind well chamber (chemotactic activity of the peptide itself)", "format": "cell-based", "conditions": "for DISTANCE MOVED (% of control): control = RPMI-1640; for effect on cell migration (in words): peptide concentration of 1×10^-9 M, FIG. 1", "procedure": "Each of the peptides was assayed for its ability to induce the directed migration of neutrophils towards itself. […] The distances migrated by the cells, under the influence of the various peptides, was therefore expressed as a percentage of the distance travelled in RPMI tissue culture medium alone. In the first experiments the effect of native NAF on the cells was compared to that of FMLP (FIG. I). […] None of the synthetic peptides induced chemotaxis either alone or in combination with one another when the synthetic peptides were examined under the same conditions (FIG. 2).\n(§1) Human blood was anticoagulated with heparin.\n(§2) Chemotaxis was performed using the leading front method as described by Zigmond and Hirsch.^21 The test material was placed in the lower well of a blind well chemotaxis chamber.^22 A five micron pore size, and 100 μl aliquot of the neutrophil preparation (1×10^6 cells/ml) in RPMI-1640 containing 1% albumin was added to the top of the filter and incubated at 37° C. for 30 min. (In some experiments neutrophils were pre-incubated in the presence of peptide for 10 min at room temperature before being added to the upper chamber.) The filter was then fixed and stained and mounted on a glass microscope slide. The leading front was determined by the position of the leading two cells. The distance that the leading two cells had moved through the filter was measured for six fields on each filter. The measurements were made with two filters for each set of conditions."}, "[2]": {"tested_on": "Neutrophil activating factor induced human neutrophil chemotaxis", "test": "Inhibition of NAF-induced neutrophil chemotaxis", "format": "cell-based", "source_text": "(§3) The peptides were examined to determine if any of the peptides could block the action of the native molecule. In these experiments the attractant in the lower well of the Boyden chamber contained both native NAF (1×10^-8 M) and one or more synthetic peptide(s) (1×10^-6 M) Table 2. The migration of the cells in RPMI tissue culture medium alone, or under the influence of native NAF or the individual peptides was also examined in each experiment. […] The mean migration of native NAF was an average of 79% (S.D.=3) above that of buffer alone, while the mean migration towards native NAF in the presence of NAF (3-25) was 32% (S.D.=10) and the mean migration towards native NAF in the presence of NAF (44-72) (S.D.=13) was 52% above control migration (Table 2). These reductions are statistically significant at p<0.002 by Student's t test. These two peptides inhibited NAF induced migration by 59 and 34% respectively. When NAF was incubated in the presence of both peptides the mean migration towards native NAF was 24% (S.D.=3) above controls for a total inhibition of NAF activity of 70%. Therefore, the inhibitory effects of the peptides were approximately additive.\nas §1, §2"}, "[3]": {"tested_on": "chemotaxis induced by FMLP", "test": "Specificity: effect on FMLP-induced neutrophil chemotaxis", "format": "cell-based, human", "conditions": "FMLP 5 × 10^-9 M plus peptide 1 × 10^-6 M", "source_text": "as §3, with “These two peptides inhibited NAF induced migration by 59 and 34% respectively. When NAF was incubated in the presence of both peptides the mean migration towards native NAF was 24% (S.D.=3) above controls for a total inhibition of NAF activity of 70%. Therefore, the inhibitory effects of the peptides were approximately additive.” left out\nChemotaxis was performed using the leading front method as described by Zigmond and Hirsch.^21 The test material was placed in the lower well of a blind well chemotaxis chamber.^22 A five micron pore size, and 100 μl aliquot of the neutrophil preparation (1×10^6 cells/ml) in RPMI-1640 containing 1% albumin was added to the top of the filter and incubated at 37° C. for 30 min. […] The leading front was determined by the position of the leading two cells. The distance that the leading two cells had moved through the filter was measured for six fields on each filter. […]"}, "neutrophil chemotaxis": {"tested_on": "neutrophil chemotaxis", "conditions": "Tanaka et al.; cited from earlier work"}, "[4]": {"conditions": "NAF 1 × 10^-8 M plus peptide 1 × 10^-6 M in lower well"}, "[5]": {"conditions": "NAF 1 × 10^-8 M, neutrophils preincubated with peptide 1 × 10^-6 M (10 min, room temperature)"}},
  "note": "“Also recorded” adds a separate entry of the source.",
  "data": [
    {"substance": "Neutrophil activating factor [NAF]", "values": [
      {"measurement": "release of β-D-glucuronidase from neutrophils (in words)", "setting": "[1]", "result": "Neither NAF nor any of the synthetic peptides caused the cells to degranulate; also recorded: failed to release β-D-glucuronidase; also recorded: None of the synthetic peptides, nor native NAF, caused release of β-D-glucuronidase"},
      {"measurement": "DISTANCE MOVED (% of control)", "setting": "human neutrophils; NAF alone, 1 × 10^-8 M", "result": "179 ± 3 % of control"},
      {"measurement": "mean migration above that of buffer alone", "setting": "human neutrophils; native NAF 1 × 10^-8 M", "result": 79, "unit": "%"},
      {"measurement": "effect on cell migration (in words)", "setting": "human neutrophils", "result": "increase the cell migration"}
    ]},
    {"substance": "FMLP", "values": [
      {"measurement": "release of β-D-glucuronidase from neutrophils (in words)", "setting": "[1]", "result": "stimulated release from the cells was possible"},
      {"measurement": "DISTANCE MOVED (% of control)", "setting": "human neutrophils; FMLP alone, 5 × 10^-9 M", "result": "180 ± 17 % of control"},
      {"measurement": "effect on cell migration (in words)", "setting": "human neutrophils", "result": "increase the cell migration"}
    ]},
    {"substance": "KELRCQCIKTYSKPFHPKFIKEL [NAF(3-25)]", "values": [
      {"measurement": "DISTANCE MOVED (% of control)", "setting": "[2]; [4]", "result": "132 ± 10 % of control"},
      {"measurement": "INHIBITION (%) of NAF-induced neutrophil chemotaxis", "setting": "[2]; [4]", "result": "59 ± 13", "unit": "%"},
      {"measurement": "INHIBITION (%) of NAF-induced neutrophil chemotaxis", "setting": "[2]; NAF 1 × 10^-8 M plus peptide 1 × 10^-6 M in lower well, listed as NAF (3-25)", "result": 59, "unit": "%"},
      {"measurement": "DISTANCE MOVED (% of control)", "setting": "[2]; [5]", "result": "97 ± 11 % of control"},
      {"measurement": "INHIBITION (%) of NAF-induced neutrophil chemotaxis", "setting": "[2]; [5]", "result": "104 ± 14", "unit": "%"},
      {"measurement": "mean migration towards native NAF in the presence of peptide, above control migration", "setting": "[2]; native NAF 1 × 10^-8 M plus synthetic peptide(s) 1 × 10^-6 M", "result": 32, "unit": "%"},
      {"measurement": "effect on the action of native NAF (in words)", "setting": "[2]; native NAF plus synthetic peptide", "result": "able to reduce neutrophil chemotaxis; also recorded: reduce the action of native NAF"},
      {"measurement": "DISTANCE MOVED (% of control)", "setting": "[3]", "result": "190 ± 18 % of control"},
      {"measurement": "DISTANCE MOVED (% of control)", "setting": "human neutrophils; synthetic peptide alone, 1 × 10^-6 M in lower well", "result": "100 ± 6 % of control"}
    ]},
    {"substance": "(7-37): peptide of Tanaka et al. corresponding to residues (7-37) of the NAF sequence (AKELRCQCIKTYSKPFHPKFIKELRVIESGP; Interleukin-8; UniProt P10145 29-59, looked up, fragment)", "values": [
      {"measurement": "chemotactic activity (in words)", "setting": "neutrophil chemotaxis", "result": "inactive"},
      {"measurement": "inhibition of chemotaxis (in words)", "setting": "neutrophil chemotaxis", "result": "did not find that any of their synthetic peptides inhibited chemotaxis"}
    ]},
    {"substance": "(17-37): peptide of Tanaka et al. corresponding to residues (17-37) of the NAF sequence (TYSKPFHPKFIKELRVIESGP; Interleukin-8; UniProt P10145 39-59, looked up, fragment)", "values": [
      {"measurement": "chemotactic activity (in words)", "setting": "neutrophil chemotaxis", "result": "inactive"},
      {"measurement": "inhibition of chemotaxis (in words)", "setting": "neutrophil chemotaxis", "result": "did not find that any of their synthetic peptides inhibited chemotaxis"}
    ]},
    {"substance": "(30-72): peptide of Tanaka et al. corresponding to residues (30-72) of the NAF sequence (LRVIESGPHCANTEIIVKLSDGRELCLDPKENWVQRVVEKFLK; Interleukin-8; UniProt P10145 52-94, looked up, fragment)", "values": [
      {"measurement": "chemotactic activity (in words)", "setting": "neutrophil chemotaxis", "result": "inactive"},
      {"measurement": "inhibition of chemotaxis (in words)", "setting": "neutrophil chemotaxis", "result": "did not find that any of their synthetic peptides inhibited chemotaxis"}
    ]}
  ]
}
